Data taken from US7994209B2, “3-phenoxymethylpyrrolidine compounds” (Theravance, Inc., priority 2009, dated 2011).

Columns and labels:
hSERT [1] = biological target: T1, hSERT (Homo sapiens, UniProt P31645); experiment: hSERT neurotransmitter uptake assay (3H-5-HT), Assay 2; assay type: cell-based; design: expressed in transfected cells; host or cells: HEK-293; conditions: serotonin reuptake inhibition, 3H-5-HT uptake, HEK-293 hSERT cells (values without asterisk); read-out: SERT pIC50 (converted)
T1 sequence (P31645 whole entry): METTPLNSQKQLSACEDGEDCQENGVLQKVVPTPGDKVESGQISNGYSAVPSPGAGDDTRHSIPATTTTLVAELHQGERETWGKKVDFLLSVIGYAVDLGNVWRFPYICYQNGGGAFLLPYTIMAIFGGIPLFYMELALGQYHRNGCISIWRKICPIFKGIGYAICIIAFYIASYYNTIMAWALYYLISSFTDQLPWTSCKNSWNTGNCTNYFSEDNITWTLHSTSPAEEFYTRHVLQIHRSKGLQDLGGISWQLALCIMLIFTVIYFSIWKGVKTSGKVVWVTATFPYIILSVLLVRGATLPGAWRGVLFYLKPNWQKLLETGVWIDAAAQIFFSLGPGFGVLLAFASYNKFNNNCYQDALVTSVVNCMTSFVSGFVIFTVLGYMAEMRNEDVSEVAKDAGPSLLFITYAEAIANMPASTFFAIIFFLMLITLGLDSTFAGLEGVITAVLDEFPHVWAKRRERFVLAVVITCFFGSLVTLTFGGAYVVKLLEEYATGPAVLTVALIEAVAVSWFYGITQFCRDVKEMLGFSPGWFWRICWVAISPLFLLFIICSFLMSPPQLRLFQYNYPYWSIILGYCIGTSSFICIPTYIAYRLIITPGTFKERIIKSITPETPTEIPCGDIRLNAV
Experimental: (§1) Cells were harvested by centrifugation at 1100 rpm for 5 minutes, washed once by resuspension in PBS, then centrifuged. The supernatant was discarded and the cell pellet resuspended, by gentle trituration, in room temperature Krebs-Ringer bicarbonate buffer containing HEPES (10 mM), CaCl2 (2.2 mM), ascorbic acid (200 μM) and pargyline (200 μM), pH 7.4.
(§2) Test compounds were incubated for 30 minutes at 37° C. with the respective cells, prior to addition of radiolabeled neurotransmitter, ^3H-5-HT (20 nM final concentration), ^3H-NE (50 nM final concentration) or ^3H-DA (100 nM final concentration).

hNET [2] = biological target: T2, hNET (Homo sapiens, UniProt P23975); experiment: hNET neurotransmitter uptake assay (3H-NE), Assay 2; assay type: cell-based; design: expressed in transfected cells; host or cells: HEK-293; conditions: norepinephrine reuptake inhibition, 3H-NE uptake, HEK-293 hNET cells (values without asterisk); read-out: NET pIC50 (converted)
T2 sequence (P23975 whole entry): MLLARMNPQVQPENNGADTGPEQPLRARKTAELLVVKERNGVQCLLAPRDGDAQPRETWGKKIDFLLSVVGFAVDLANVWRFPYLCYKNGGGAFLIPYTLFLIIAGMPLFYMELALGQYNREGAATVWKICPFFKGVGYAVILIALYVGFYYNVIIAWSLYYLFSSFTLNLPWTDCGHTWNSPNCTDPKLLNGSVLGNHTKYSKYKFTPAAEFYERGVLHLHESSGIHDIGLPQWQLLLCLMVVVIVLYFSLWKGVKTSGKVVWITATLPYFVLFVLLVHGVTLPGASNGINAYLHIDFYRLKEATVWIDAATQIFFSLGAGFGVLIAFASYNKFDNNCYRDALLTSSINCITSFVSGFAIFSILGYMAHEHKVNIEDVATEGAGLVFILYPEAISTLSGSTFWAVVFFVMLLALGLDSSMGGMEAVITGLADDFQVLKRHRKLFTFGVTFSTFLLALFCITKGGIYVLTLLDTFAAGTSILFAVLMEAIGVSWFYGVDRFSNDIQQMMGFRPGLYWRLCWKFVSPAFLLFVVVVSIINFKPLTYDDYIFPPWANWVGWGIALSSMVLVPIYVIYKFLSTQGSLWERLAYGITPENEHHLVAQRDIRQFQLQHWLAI
Experimental: as §1, §2

hNET [3] = biological target: T2, hNET; experiment: hNET membrane radioligand binding assay (3H-nisoxetine), Assay 1
Experimental: (§3) Membrane radioligand binding assays were used to measure inhibition of labeled ligand (^3H-citalopram or ^3H-nisoxetine or ^3H-WIN35428) binding to membranes prepared from cells expressing the respective human recombinant transporter (hSERT or hNET or hDAT) in order to determine the pKi values of test compounds at the transporters.
(§4) Recombinant human embryonic kidney (HEK-293) derived cell lines stably transfected with hSERT or hNET, respectively, were grown in DMEM medium supplemented with 10% dialyzed FBS (for hSERT) or FBS (for hNET), 100 μg/mL penicillin, 100 μg/mL streptomycin, 2 mM L-glutamine and 250 μg/mL of the aminoglycoside antibiotic G418, in a 5% CO2 humidified incubator at 37° C. When cultures reached 80% confluence, the cells were washed thoroughly in PBS (without Ca^2+ and Mg^2+) and lifted with 5 mM EDTA in PBS. Cells were pelleted by centrifugation, resuspended in lysis buffer (10 mM Tris-HCl, pH7.5 containing 1 mM EDTA), homogenized, pelleted by centrifugation, then resuspended in 50 mM Tris-HCl, pH 7.5 and 10% sucrose at 4° C. Protein concentration of the membrane suspension was determined using a Bio-Rad Bradford Protein Assay kit. Membranes were snap frozen and stored at −80° C.
(§5) Binding assays were performed in a 96-well assay plate in a total volume of 200 μl assay buffer (50 mM Tris-HCl, 120 mM NaCl, 5 mM KCl, pH 7.4) with 0.5, 1, and 3 μg membrane protein, for SERT, NET and DAT, respectively.
(§6) Stock solutions (10 mM in DMSO) of test compound were prepared and serial dilutions made using Dilution Buffer (50 mM Tris-HCl, 120 mM NaCl, 5 mM KCl, pH 7.4, 0.1% BSA, 400 μM ascorbic acid).
(§7) Following a 60 minute incubation at 22° C. (or a period sufficient to reach equilibrium), the membranes were harvested by rapid filtration over a 96-well UniFilter GF/B plate, pretreated with 0.3% polyethyleneimine, and washed 6 times with 300 μl wash buffer (50 mM Tris-HCl, 0.9% NaCl, pH 7.5 at 4° C.). Plates were dried overnight at room temperature, approximately 45 μl of MicroScint™-20 (Perkin Elmer) added and bound radioactivity quantitated via liquid scintillation spectroscopy. Inhibition curves and saturation isotherms were analyzed using GraphPad Prism Software package (GraphPad Software, Inc., San Diego, Calif.). IC50 values were generated from concentration response curves using the Sigmoidal Dose Response (variable slope) algorithm in Prism GraphPad.

hSERT [4] = biological target: T1, hSERT; experiment: hSERT membrane radioligand binding assay (3H-citalopram), Assay 1; conditions: SERT pKi, hSERT HEK-293 membranes, 1.0 nM 3H-citalopram; values given as lower bounds
Experimental: as §3, §4, §5, §6, §7

Compound	IC50 (hSERT [1]) [nM]	IC50 (hNET [2]) [nM]	Ki (hNET [3]) [nM]	Ki (hSERT [4]) [nM]
CC[C@@H](Oc1cccc(Cl)c1Cl)[C@@H]1CCNC1 [Example 2-29, (R)-3-[(R)-1-(2,3-Dichlorophenoxy)propyl]pyrrolidine]	≤ 10	≤ 10	≤ 10	≤ 10
CC[C@H](Oc1ccc(F)cc1Cl)[C@H]1CCNC1 [Example 2-32, (S)-3-[(S)-1-(2-Chloro-4-fluorophenoxy)propyl]pyrrolidine]	≤ 10	≤ 10	≤ 10	≤ 10
CC[C@H](Oc1c(Cl)ccc(Cl)c1Cl)[C@H]1CCNC1 [Example 2-37, (S)-3-[(S)-1-(2,3,6-Trichlorophenoxy)propyl]pyrrolidine]	≤ 100	≤ 10	≤ 10	≤ 10
CC[C@@H](Oc1c(Cl)ccc(Cl)c1Cl)[C@H]1CCNC1 [Example 2-38, (S)-3-[(R)-1-(2,3,6-Trichlorophenoxy)propyl]pyrrolidine]	≤ 100	≤ 10	≤ 10	≤ 10
CC[C@@H](Oc1c(F)ccc(Cl)c1Cl)[C@H]1CCNC1 [Example 2-39, (S)-3-[(R)-1-(2,3-Dichloro-6-fluorophenoxy)propyl]pyrrolidine]	≤ 100	≤ 10	≤ 10	≤ 10
CC[C@H](Oc1c(F)ccc(F)c1Cl)[C@H]1CCNC1 [Example 2-40, (S)-3-[(S)-1-(2-Chloro-3,6-difluorophenoxy)propyl]pyrrolidine]	≤ 100	≤ 10	≤ 10	≤ 10
CC[C@@H](Oc1c(F)ccc(F)c1Cl)[C@H]1CCNC1 [Example 2-41, (S)-3-[(R)-1-(2-Chloro-3,6-difluorophenoxy)propyl]pyrrolidine]	≤ 100	≤ 10	≤ 10	≤ 10
CC[C@H](Oc1ccc(Cl)c(F)c1Cl)[C@H]1CCNC1 [Example 2-42, (S)-3-[(S)-1-(2,4-Dichloro-3-fluorophenoxy)propyl]pyrrolidine]	≤ 10	≤ 10	≤ 10	≤ 10
CC[C@H](Oc1c(C)cc(Cl)cc1Cl)[C@H]1CCNC1 [Example 2-43, (S)-3-[(S)-1-(2,4-Dichloro-6-methylphenoxy)propyl]pyrrolidine]	≤ 100	≤ 10	≤ 10	≤ 10
CC[C@H](Oc1c(F)ccc(OC)c1Cl)[C@H]1CCNC1 [Example 2-44, (S)-3-[(S)-1-(2-Chloro-6-fluoro-3-methoxyphenoxy)propyl]pyrrolidine]	≤ 10	≤ 10	≤ 10	≤ 10
CC[C@H](Oc1ccc(Cl)cc1F)[C@H]1CCNC1 [Example 2-47, (S)-3-[(S)-1-(4-Chloro-2-fluorophenoxy)propyl]pyrrolidine]	≤ 100	≤ 10	≤ 10	≤ 10
CC[C@H](Oc1c(F)cc(Cl)cc1F)[C@H]1CCNC1 [Example 2-48, (S)-3-[(S)-1-(4-Chloro-2,6-difluorophenoxy)propyl]pyrrolidine]	≤ 10	≤ 10	≤ 10	≤ 10
CC[C@H](Oc1c(F)ccc(Cl)c1F)[C@H]1CCNC1 [Example 2-52, (S)-3-[(S)-1-(3-Chloro-2,6-difluorophenoxy)propyl]pyrrolidine]	≤ 100	≤ 10	≤ 10	≤ 10
CC[C@H](Oc1c(F)cc(F)cc1F)[C@H]1CCNC1 [Example 2-55, (S)-3-[(S)-1-(2,4,6-Trifluorophenoxy)propyl]pyrrolidine]	≤ 100	≤ 10	≤ 10	≤ 10
CC[C@H](Oc1ccc(F)c(OC)c1F)[C@H]1CCNC1 [Example 2-57, (S)-3-[(S)-1-(2,4-Difluoro-3-methoxyphenoxy)propyl]pyrrolidine]	≤ 100	≤ 100	≤ 100	≤ 10
CC[C@H](Oc1ccc(Cl)cc1C)[C@H]1CCNC1 [Example 2-58, (S)-3-[(S)-1-(4-Chloro-2-methylphenoxy)propyl]pyrrolidine]	≤ 10	≤ 10	≤ 10	≤ 10
CC[C@@H](Oc1ccc(Cl)cc1C)[C@@H]1CCNC1 [Example 2-60, (R)-3-[(R)-1-(4-Chloro-2-methylphenoxy)propyl]pyrrolidine]	≤ 100	≤ 100	≤ 100	≤ 10

Compound	IC50 (hSERT [1]) [nM]	IC50 (hNET [2]) [nM]	Ki (hNET [3]) [nM]	Ki (hSERT [4]) [nM]
CC[C@H](Oc1ccccc1C)[C@H]1CCNC1 [Example 2-62, (S)-3-((S)-1-o-Tolyloxypropyl)pyrrolidine]	≤ 100	≤ 10	≤ 10	≤ 10
CCc1cc(F)ccc1O[C@@H](CC)[C@H]1CCNC1 [Example 2-66, (S)-3-[(S)-1-(2-Ethyl-4-fluorophenoxy)propyl]pyrrolidine]	≤ 10	≤ 10	≤ 10	≤ 10
CC[C@H](Oc1ccc(Cl)cc1OC)[C@H]1CCNC1 [Example 2-68, (S)-3-[(S)-1-(4-Chloro-2-methoxyphenoxy)propyl]pyrrolidine]	≤ 10	≤ 10	≤ 10	≤ 10
CC[C@H](Oc1ccc(F)cc1OC)[C@H]1CCNC1 [Example 2-69, (S)-3-[(S)-1-(4-Fluoro-2-methoxyphenoxy)propyl]pyrrolidine]	≤ 100	≤ 100	≤ 10	≤ 100
CC[C@H](Oc1cc(F)c(Cl)cc1OC)[C@H]1CCNC1 [Example 2-70, (S)-3-[(S)-1-(4-Chloro-5-fluoro-2-methoxyphenoxy)propyl]pyrrolidine]	≤ 100	≤ 10	≤ 10	≤ 10
CC[C@H](Oc1cccc(Cl)c1C(F)(F)F)[C@H]1CCNC1 [Example 2-71, (S)-3-[(S)-1-(3-Chloro-2-trifluoromethylphenoxy)propyl]pyrrolidine]	≤ 100	≤ 10	≤ 10	≤ 10
CC[C@@H](Oc1cccc(Cl)c1C(F)(F)F)[C@@H]1CCNC1 [Example 2-72, (R)-3-[(R)-1-(3-Chloro-2-trifluoromethylphenoxy)propyl]pyrrolidine]	≤ 100	≤ 100	≤ 10	≤ 10
CC[C@H](Oc1ccc(Cl)cc1C(F)(F)F)[C@H]1CCNC1 [Example 2-75, (S)-3-[(S)-1-(4-Chloro-2-trifluoromethylphenoxy)propyl]pyrrolidine]	≤ 100	≤ 10	≤ 10	≤ 10
CCC[C@H](Oc1cccc(Cl)c1Cl)[C@H]1CCNC1 [Example 3, (S)-3-[(S)-1-(2,3-Dichlorophenoxy)butyl]pyrrolidine]	≤ 10	≤ 10	≤ 10	≤ 10
CCC[C@H](Oc1ccc(Cl)cc1)[C@H]1CCNC1 [Example 4-1, (S)-3-[(S)-1-(4-Chlorophenoxy)butyl]pyrrolidine]	≤ 10	≤ 10	≤ 10	≤ 10
CCC[C@@H](Oc1ccc(Cl)cc1)[C@H]1CCNC1 [Example 4-2, (S)-3-[(R)-1-(4-Chlorophenoxy)butyl]pyrrolidine]	≤ 10	≤ 100	≤ 10	≤ 10
CCC[C@H](Oc1ccc(F)cc1)[C@H]1CCNC1 [Example 4-5, (S)-3-[(S)-1-(4-Fluorophenoxy)butyl]pyrrolidine]	≤ 100	≤ 10	≤ 10	≤ 10
CCC[C@H](Oc1cc(Cl)cc(Cl)c1)[C@H]1CCNC1 [Example 4-6, (S)-3-[(S)-1-(3,5-Dichlorophenoxy)butyl]pyrrolidine]	≤ 10	≤ 10	≤ 10	≤ 10
CCC[C@@H](Oc1cc(Cl)cc(Cl)c1)[C@H]1CCNC1 [Example 4-7, (S)-3-[(R)-1-(3,5-Dichlorophenoxy)butyl]pyrrolidine]	≤ 10	≤ 10	≤ 10	≤ 10
CCC[C@H](Oc1ccc(Cl)c(Cl)c1)[C@H]1CCNC1 [Example 4-12, (S)-3-[(S)-1-(3,4-Dichlorophenoxy)butyl]pyrrolidine]	≤ 10	≤ 10	≤ 10	≤ 10
CCC[C@@H](Oc1ccc(Cl)c(Cl)c1)[C@H]1CCNC1 [Example 4-13, (S)-3-[(R)-1-(3,4-Dichlorophenoxy)butyl]pyrrolidine]	≤ 10	≤ 10	≤ 10	≤ 10
CCC[C@H](Oc1ccc(Cl)c(F)c1)[C@H]1CCNC1 [Example 4-18, (S)-3-[(S)-1-(4-Chloro-3-fluorophenoxy)butyl]pyrrolidine]	≤ 10	≤ 10	≤ 10	≤ 10
